In patent US9302999B2, “Substituted triazoles as herbicides” (E. I. DU PONT DE NEMOURS AND COMPANY, priority 2012, dated 2016):

Columns and labels:
Assay type in all cases: in vivo
[1] = test system: foxtail, green (green foxtail, Setaria viridis); test: Test D pre-/postemergence: foxtail, green
Summary of the method: (§1)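 Applied as a non-phytotoxic solvent formulation with surfactant, compounds were tested preemergence in silt loam and postemergence on seedlings 2 to 18 cm high in peat-vermiculite medium. Evaluation was visual, 0 meaning no effect and 100 complete control, at 14 to 21 days.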

[2] = test system: deadnettle (henbit deadnettle, Lamium amplexicaule); test: Test D pre-/postemergence: deadnettle
Summary of the method: as §1

kochia (Kochia scoparia) = test: Test D pre-/postemergence: kochia
Summary of the method: as §1

[3] = test system: lambsquarters (Chenopodium album); test: Test D pre-/postemergence: lambsquarters
Summary of the method: as §1

[4] = test system: mustard, wild (wild mustard, Sinapis arvensis); test: Test D pre-/postemergence: mustard, wild
Summary of the method: as §1

corn (Zea mays) = test: Test F pre-/postemergence: corn; conditions: Preemergence
Summary of the method: (§2)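 0–100 visual control scores, taken 14–21 d after application in the greenhouse. Preemergence treatment was made to silt loam soil at sowing. Postemergence sprays hit 1- to 4-leaf plants (2–18 cm) in peat/vermiculite mix. Surfactant-containing non-phytotoxic solvent served as the vehicle.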

[5] = test system: velvetleaf (Abutilon theophrasti); test: Test F pre-/postemergence: velvetleaf; conditions: Preemergence
Excerpt: Seeds of plant species selected from corn (Zea mays), soybean (Glycine max), velvetleaf (Abutilon theophrasti), lambsquarters (Chenopodium album), poinsettia, wild (wild poinsettia, Euphorbia heterophylla), pigweed, palmer (palmer pigweed, Amaranthus palmeri), waterhemp (common waterhemp, Amaranthus rudis), surinam grass (Brachiaria decumbens), crabgrass, Brazil (Brazilian crabgrass, Digitaria horizontalis), panicum, fall (fall panicum Panicum dichotomiflorum), crabgrass, large (large crabgrass, Digitaria sanguinalis), foxtail, giant (giant foxtail, Setaria faberii), foxtail, green (green foxtail Setaria viridis), goosegrass (Eleusine indica), ragweed (common ragweed, Ambrosia elatior), barnyardgrass (Echinochloa crus-galli), sandbur (southern sandbur, Cenchrus echinatus), arrowleaf sida (Sida rhombifolia), ryegrass, Italian (Italian ryegrass, Lolium multiflorum), dayflower, VA (Virginia (VA) dayflower, Commelina virginica), field bindweed (Convolvulus arvensis), cocklebur (common cocklebur, Xanthium strumarium), morningglory (Ipomoea coccinea), nightshade (eastern black nightshade, Solanum ptycanthum), kochia (Kochia scoparia), nutsedge, yellow (yellow nutsedge, Cyperus esculentus), johnsongrass (Sorghum halepense), smartweed (ladysthumb smartweed, Polygonum persicaria), and beggarticks (hairy beggarticks, Bidens pilosa), were planted into a silt loam soil and treated preemergence with test chemicals formulated in a non-phytotoxic solvent mixture which included a surfactant. At the same time, plants selected from these crop and weed species and also pigweed (Amaranthus retroflexus), waterhemp_RES1 (ALS/Triazine resistant common waterhemp, Amaranthus rudis) and waterhemp_RES2 (ALS/HPPD resistant common waterhemp, Amaranthus rudis) were planted in pots containing a planting medium comprising spaghnum peat moss, vermiculite, wetting agent and starter nutrients treated with postemergence applications of some of the test chemicals formulated in the same manner. Plants ranged in height from 2 to 18 cm for postemergence treatments (1- to 4-leaf stage).
Treated plants and controls were maintained in a greenhouse for 14 to 21 days, after which time all species were compared to controls and visually evaluated. Plant response ratings, summarized in Table E, are based on a scale of 0 to 100 where 0 is no effect and 100 is complete control. A dash (-) response means no test result.

[6] = test system: waterhemp (common waterhemp, Amaranthus rudis); test: Test F pre-/postemergence: waterhemp; conditions: Preemergence
Summary of the method: as §2

[7] = test system: dayflower, VA (Virginia (VA) dayflower, Commelina virginica); test: Test F pre-/postemergence: dayflower, VA; conditions: Preemergence
Summary of the method: as §2

[8] = test system: nightshade (eastern black nightshade, Solanum ptycanthum); test: Test F pre-/postemergence: nightshade; conditions: Preemergence
Summary of the method: as §2

[9] = Postemergence, 31 g ai/ha, scale 0 to 100 (0 no effect, 100 complete control)
[10] = Postemergence, 62 g ai/ha, scale 0 to 100 (0 no effect, 100 complete control)
[11] = Postemergence, 125 g ai/ha, scale 0 to 100, 0 no effect, 100 complete control
[12] = Postemergence, 16 g ai/ha, scale 0 to 100
[13] = Preemergence, 16 g ai/ha, scale 0 to 100, 0 no effect, 100 complete control
[14] = Preemergence, 31 g ai/ha, scale 0 to 100, 0 no effect, 100 complete control
[15] = Preemergence, 62 g ai/ha, scale 0 to 100
[16] = Preemergence, 125 g ai/ha, scale 0 to 100
[17] = 16 g ai/ha, scale 0 to 100, 0 no effect, 100 complete control
[18] = 31 g ai/ha, scale 0 to 100, 0 no effect, 100 complete control

Cc1nn(-c2ccc(C(F)(F)F)c(F)c2)nc1Oc1ccnc(C(F)(F)F)c1 [Compound 148]
Plant response rating: Foxtail, Green [1, 9]: 15 | Plant response rating: Foxtail, Green [1, 10]: 50 | Plant response rating: Foxtail, Green [1, 11]: 60 | Plant response rating, Foxtail, Green [1, 12]: 15 | Plant response rating, Foxtail, Green [1, 13]: 15 | Plant response rating, Foxtail, Green [1, 14]: 50 | Plant response rating, Foxtail, Green [1, 15]: 70 | Plant response rating, Foxtail, Green [1, 16]: 100 | Plant response rating: Deadnettle [2, 9]: 65 | Plant response rating: Deadnettle [2, 10]: 100 | Plant response rating: Deadnettle [2, 11]: 100 | Plant response rating, Deadnettle [2, 12]: 70 | Plant response rating, Deadnettle [2, 13]: 10 | Plant response rating, Deadnettle [2, 14]: 45 | Plant response rating, Deadnettle [2, 15]: 100 | Plant response rating, Deadnettle [2, 16]: 100 | Plant response rating: Kochia (kochia (Kochia scoparia); [9]): 85 | Plant response rating: Kochia (kochia (Kochia scoparia); [10]): 85 | Plant response rating: Kochia (kochia (Kochia scoparia); [11]): 85 | Plant response rating, Kochia (kochia (Kochia scoparia); [12]): 75 | Plant response rating, Kochia (kochia (Kochia scoparia); [13]): 10 | Plant response rating, Kochia (kochia (Kochia scoparia); [14]): 20 | Plant response rating, Kochia (kochia (Kochia scoparia); [15]): 10 | Plant response rating, Kochia (kochia (Kochia scoparia); [16]): 75 | Plant response rating: Lambsquarters [3, 9]: 85 | Plant response rating: Lambsquarters [3, 10]: 95 | Plant response rating: Lambsquarters [3, 11]: 95 | Plant response rating, Lambsquarters [3, 12]: 85 | Plant response rating, Lambsquarters [3, 13]: 35 | Plant response rating, Lambsquarters [3, 14]: 40 | Plant response rating, Lambsquarters [3, 15]: 80 | Plant response rating, Lambsquarters [3, 16]: 90 | Plant response rating: Mustard, Wild [4, 9]: 100 | Plant response rating: Mustard, Wild [4, 10]: 100 | Plant response rating: Mustard, Wild [4, 11]: 100 | Plant response rating, Mustard, Wild [4, 12]: 55 | Plant response rating, Mustard, Wild [4, 13]: 20 | Plant response rating, Mustard, Wild [4, 14]: 15 | Plant response rating, Mustard, Wild [4, 15]: 55 | Plant response rating, Mustard, Wild [4, 16]: 95 | Plant response rating, Corn (corn (Zea mays); [17]): 0 | Plant response rating, Corn (corn (Zea mays); [18]): 0 | Plant response rating, Corn (corn (Zea mays); 62 g ai/ha, scale 0 to 100): 0 | Plant response rating, Corn (corn (Zea mays); 125 g ai/ha, scale 0 to 100): 0 | Plant response rating, Corn (corn (Zea mays); 250 g ai/ha, scale 0 to 100): 5 | Plant response rating, Velvetleaf [5, 17]: 0 | Plant response rating, Velvetleaf [5, 18]: 0 | Plant response rating, Velvetleaf ([5]; 125 g ai/ha, scale 0 to 100): 25 | Plant response rating, Velvetleaf ([5]; 250 g ai/ha, scale 0 to 100): 65 | Plant response rating, Waterhemp [6, 17]: 30 | Plant response rating, Waterhemp [6, 18]: 90 | Plant response rating, Waterhemp ([6]; 125 g ai/ha, scale 0 to 100): 100 | Plant response rating, Waterhemp ([6]; 250 g ai/ha, scale 0 to 100): 100 | Plant response rating, Dayflower, VA [7, 17]: 0 | Plant response rating, Dayflower, VA [7, 18]: 40 | Plant response rating, Dayflower, VA ([7]; 62 g ai/ha, scale 0 to 100): 40 | Plant response rating, Dayflower, VA ([7]; 125 g ai/ha, scale 0 to 100): 65 | Plant response rating, Dayflower, VA ([7]; 250 g ai/ha, scale 0 to 100): 90 | Plant response rating, Nightshade [8, 17]: 0 | Plant response rating, Nightshade [8, 18]: 0 | Plant response rating, Nightshade ([8]; 125 g ai/ha, scale 0 to 100): 98 | Plant response rating, Nightshade ([8]; 250 g ai/ha, scale 0 to 100): 98

CCc1nn(-c2ccc(C(F)(F)F)cc2)nc1Cc1ccnc(C(F)(F)F)c1 [Compound 155]
Plant response rating: Foxtail, Green [1, 9]: 15 | Plant response rating: Foxtail, Green [1, 10]: 70 | Plant response rating: Foxtail, Green [1, 11]: 80 | Plant response rating, Foxtail, Green [1, 12]: 20 | Plant response rating, Foxtail, Green [1, 13]: 20 | Plant response rating, Foxtail, Green [1, 14]: 65 | Plant response rating, Foxtail, Green [1, 15]: 85 | Plant response rating, Foxtail, Green [1, 16]: 100 | Plant response rating: Deadnettle [2, 9]: 75 | Plant response rating: Deadnettle [2, 10]: 90 | Plant response rating: Deadnettle [2, 11]: 100 | Plant response rating, Deadnettle [2, 12]: 75 | Plant response rating, Deadnettle [2, 13]: 5 | Plant response rating, Deadnettle [2, 14]: 5 | Plant response rating, Deadnettle [2, 15]: 80 | Plant response rating, Deadnettle [2, 16]: 95 | Plant response rating: Kochia (kochia (Kochia scoparia); [9]): 80 | Plant response rating: Kochia (kochia (Kochia scoparia); [10]): 85 | Plant response rating: Kochia (kochia (Kochia scoparia); [11]): 85 | Plant response rating, Kochia (kochia (Kochia scoparia); [12]): 70 | Plant response rating, Kochia (kochia (Kochia scoparia); [13]): 30 | Plant response rating, Kochia (kochia (Kochia scoparia); [14]): 60 | Plant response rating, Kochia (kochia (Kochia scoparia); [15]): 65 | Plant response rating, Kochia (kochia (Kochia scoparia); [16]): 75 | Plant response rating: Lambsquarters [3, 9]: 95 | Plant response rating: Lambsquarters [3, 10]: 90 | Plant response rating: Lambsquarters [3, 11]: 95 | Plant response rating, Lambsquarters [3, 12]: 95 | Plant response rating, Lambsquarters [3, 13]: 20 | Plant response rating, Lambsquarters [3, 14]: 55 | Plant response rating, Lambsquarters [3, 15]: 90 | Plant response rating, Lambsquarters [3, 16]: 90 | Plant response rating: Mustard, Wild [4, 9]: 100 | Plant response rating: Mustard, Wild [4, 10]: 100 | Plant response rating: Mustard, Wild [4, 11]: 100 | Plant response rating, Mustard, Wild [4, 12]: 80 | Plant response rating, Mustard, Wild [4, 13]: 55 | Plant response rating, Mustard, Wild [4, 14]: 55 | Plant response rating, Mustard, Wild [4, 15]: 100 | Plant response rating, Mustard, Wild [4, 16]: 100 | Plant response rating, Corn (corn (Zea mays); 62 g ai/ha, scale 0 to 100): 10 | Plant response rating, Corn (corn (Zea mays); 125 g ai/ha, scale 0 to 100): 15 | Plant response rating, Corn (corn (Zea mays); 250 g ai/ha, scale 0 to 100): 15 | Plant response rating, Velvetleaf ([5]; 125 g ai/ha, scale 0 to 100): 98 | Plant response rating, Velvetleaf ([5]; 250 g ai/ha, scale 0 to 100): 98 | Plant response rating, Waterhemp ([6]; 125 g ai/ha, scale 0 to 100): 100 | Plant response rating, Waterhemp ([6]; 250 g ai/ha, scale 0 to 100): 100 | Plant response rating, Dayflower, VA ([7]; 62 g ai/ha, scale 0 to 100): 20 | Plant response rating, Dayflower, VA ([7]; 125 g ai/ha, scale 0 to 100): 35 | Plant response rating, Dayflower, VA ([7]; 250 g ai/ha, scale 0 to 100): 60 | Plant response rating, Nightshade ([8]; 125 g ai/ha, scale 0 to 100): 100 | Plant response rating, Nightshade ([8]; 250 g ai/ha, scale 0 to 100): 100

CCc1nn(-c2ccc(F)c(F)c2)nc1Oc1ccnc(C(F)(F)F)c1 [Compound 171]
Plant response rating, Corn (corn (Zea mays); [17]): 0 | Plant response rating, Corn (corn (Zea mays); [18]): 0 | Plant response rating, Corn (corn (Zea mays); 62 g ai/ha, scale 0 to 100): 0 | Plant response rating, Corn (corn (Zea mays); 125 g ai/ha, scale 0 to 100): 0 | Plant response rating, Corn (corn (Zea mays); 250 g ai/ha, scale 0 to 100): 5 | Plant response rating, Velvetleaf [5, 17]: 0 | Plant response rating, Velvetleaf [5, 18]: 0 | Plant response rating, Velvetleaf ([5]; 125 g ai/ha, scale 0 to 100): 15 | Plant response rating, Velvetleaf ([5]; 250 g ai/ha, scale 0 to 100): 50 | Plant response rating, Waterhemp [6, 17]: 0 | Plant response rating, Waterhemp [6, 18]: 95 | Plant response rating, Waterhemp ([6]; 125 g ai/ha, scale 0 to 100): 100 | Plant response rating, Waterhemp ([6]; 250 g ai/ha, scale 0 to 100): 100 | Plant response rating, Dayflower, VA [7, 17]: 0 | Plant response rating, Dayflower, VA [7, 18]: 0 | Plant response rating, Dayflower, VA ([7]; 62 g ai/ha, scale 0 to 100): 0 | Plant response rating, Dayflower, VA ([7]; 125 g ai/ha, scale 0 to 100): 30 | Plant response rating, Dayflower, VA ([7]; 250 g ai/ha, scale 0 to 100): 30 | Plant response rating, Nightshade [8, 17]: 0 | Plant response rating, Nightshade [8, 18]: 0 | Plant response rating, Nightshade ([8]; 125 g ai/ha, scale 0 to 100): 5 | Plant response rating, Nightshade ([8]; 250 g ai/ha, scale 0 to 100): 5
